Data set [1] addresses Wnt-responsive promoter (TCF/LEF). Description: Wnt-dependent luciferase reporter assay. It is filed as cell-based, murine. In short, it runs like this:
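EC50 (uM) derived from inhibition of luminescence in Wnt3a-stimulated murine 3T3 cells expressing luciferase under a TCF/LEF promoter, with peptides added across a concentration range and vehicle as control.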
(In general: Reporter assays use an easily measured gene product as a stand-in for the process of interest.)

For data set [2] the following is noted: % Viability non-Wnt responsive cells.
Data set [3] deals with T1, β-catenin (Homo sapiens, UniProt P35222).
T1 sequence (P35222 1-781): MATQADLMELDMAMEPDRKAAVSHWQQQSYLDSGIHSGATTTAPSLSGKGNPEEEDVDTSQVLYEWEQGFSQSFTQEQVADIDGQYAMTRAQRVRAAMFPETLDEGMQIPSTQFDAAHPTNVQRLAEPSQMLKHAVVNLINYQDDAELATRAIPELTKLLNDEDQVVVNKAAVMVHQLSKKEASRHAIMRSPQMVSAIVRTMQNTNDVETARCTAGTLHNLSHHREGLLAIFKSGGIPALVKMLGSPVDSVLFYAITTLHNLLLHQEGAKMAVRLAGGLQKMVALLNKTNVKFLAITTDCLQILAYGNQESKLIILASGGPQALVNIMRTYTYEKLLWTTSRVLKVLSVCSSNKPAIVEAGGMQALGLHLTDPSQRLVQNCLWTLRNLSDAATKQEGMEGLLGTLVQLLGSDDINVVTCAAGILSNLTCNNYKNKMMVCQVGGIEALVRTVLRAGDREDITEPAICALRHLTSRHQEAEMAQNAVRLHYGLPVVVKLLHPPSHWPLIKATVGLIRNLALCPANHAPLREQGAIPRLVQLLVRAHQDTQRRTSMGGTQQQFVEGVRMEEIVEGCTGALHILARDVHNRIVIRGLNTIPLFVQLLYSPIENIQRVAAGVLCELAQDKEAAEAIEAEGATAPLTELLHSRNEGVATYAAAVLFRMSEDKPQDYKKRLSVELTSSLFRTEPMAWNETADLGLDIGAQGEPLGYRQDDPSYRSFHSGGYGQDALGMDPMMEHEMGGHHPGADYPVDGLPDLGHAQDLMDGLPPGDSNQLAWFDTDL
Description: KD50 measurement using competitive fluorescence polarization (FP) with labelled TCF4. The class given is binding. As to conditions: fluorescence polarization, β-catenin. In short, it runs like this:
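5 nM labelled TCF4 was combined with 100 nM β-catenin at room temperature, then inhibitor was titrated in serial dilutions from 10 nM to 30 uM. Polarization was read at excitation 470 nm, emission 520 nm; displacement lowers the signal. Three independent experiments.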
Background: In fluorescence polarisation assays a small probe gives low polarisation when free and higher when bound to something large.

The structures appear in SMILES notation. Read-outs that look alike come from different tables or passages of the source. Where a SMILES comes first, the peptide text is derived from it.

Usually EC50 stands for the concentration at which the effect is half-maximal. What is called viability is a read-out of living cells in per cent, often relative to untreated cells. Broadly, the Kd is the concentration at which binding is half-saturated. In data set [1], `CC[C@H](C)[C@@H]1NC(=O)[C@H](CC(C)C)NC(=O)[C@H](Cc2ccccc2)NC(=O)[C@H](Cc2c[nH]c3ccccc23)N(C)C(=O)[C@H](CCSC)NC(=O)[C@H](CCCNC(=N)N)NC(=O)[C@H]([C@@H](C)CC)NC(=O)[C@H](CCSC)NC(=O)[C@@H](N)CCCCNC(=O)CCCCCCCNC(=O)CNC(=O)[C@H](Cc2c[nH]c3ccccc23)NC(=O)[C@H](Cc2ccccc2)NC(=O)[C@H](CO)NC1=O` [compound 21] (HELM PEPTIDE1{K.M.I.R.M.[meW].F.L.I.S.F.W.G.[O=C(CCCCCCCN[*:1])[*:2]]}$PEPTIDE1,PEPTIDE1,1:R3-14:R2$$$V2.0) returned an EC50 greater than 30 µM. Besides, the viability in data set [2] amounted to 98.7%. For the same compound, the Kd in data set [3] (read-out: β-Cat FP KD) is greater than 30 µM.

As to `CC[C@H](C)[C@@H]1NC(=O)[C@H](CC(C)C)NC(=O)[C@H](Cc2ccc(O)cc2)NC(=O)[C@H](Cc2c[nH]c3ccccc23)NC(=O)[C@H](CCSC)NC(=O)[C@H](CCCNC(=N)N)NC(=O)[C@H](CO)NC(=O)[C@H](CCSC)NC(=O)[C@@H](N)CCCCNC(=O)[C@H](Cc2c[nH]c3ccccc23)NC(=O)[C@H](Cc2ccccc2)NC(=O)[C@H](CO)NC1=O` [compound 31] (HELM PEPTIDE1{K.M.S.R.M.W.Y.L.I.S.F.W}$PEPTIDE1,PEPTIDE1,1:R3-12:R2$$$V2.0; bridges inferred), the EC50 in data set [1] was greater than 30 µM. Further, the viability in data set [2] came out at 89%.

In the case of `CC[C@H](C)[C@@H]1NC(=O)[C@H](CC(C)C)NC(=O)[C@H](Cc2ccc(O)cc2)NC(=O)[C@H](Cc2c[nH]c3ccccc23)NC(=O)[C@H](CCSC)NC(=O)[C@H](CCCNC(=N)N)NC(=O)[C@H](CO)NC(=O)[C@@H](N)CCCCNC(=O)[C@H](Cc2c[nH]c3ccccc23)NC(=O)[C@H](Cc2ccccc2)NC(=O)[C@H](CO)NC1=O` [compound 32] (HELM PEPTIDE1{K.S.R.M.W.Y.L.I.S.F.W}$PEPTIDE1,PEPTIDE1,1:R3-11:R2$$$V2.0), the EC50 in data set [1] was greater than 30 µM. Further, the viability in data set [2] stood at 93%. For the same compound, the Kd in data set [3] (read-out: β-Cat FP KD) was greater than 30 µM.

Consider `CC[C@H](C)[C@H](NC(=O)[C@H](CC(C)C)NC(=O)[C@H](Cc1ccccc1)NC(=O)[C@H](Cc1c[nH]c2ccccc12)NC(=O)[C@H](CCSC)NC(=O)[C@H](CCCNC(=N)N)NC(=O)[C@H](CO)NC(=O)[C@@H](N)CCSC)C(=O)N[C@@H](CO)C(=O)N[C@@H](Cc1ccccc1)C(=O)N[C@@H](Cc1c[nH]c2ccccc12)C(=O)NCC(=O)O` [compound 41] (H-MSRMWFLISFWG-OH), for which, in data set [1], the EC50 is less than 7.5 µM. Besides, in data set [2], the viability is 96.1%. Besides, the Kd in data set [3] (read-out: β-Cat FP KD) is greater than 30 µM.

For `CC[C@H](C)[C@H](NC(=O)[C@H](CC(C)C)NC(=O)[C@H](Cc1ccccc1)NC(=O)[C@H](Cc1c[nH]c2ccccc12)NC(=O)[C@H](CCSC)NC(=O)[C@H](CCCNC(=N)N)NC(=O)[C@H](CO)NC(=O)[C@@H](N)CCSC)C(=O)N[C@@H](CO)C(=O)N[C@@H](Cc1ccccc1)C(=O)N[C@@H](Cc1c[nH]c2ccccc12)C(=O)N[C@H](C(=O)NCC(=O)O)[C@@H](C)O` [compound 44] (H-MSRMWFLISFWTG-OH), the EC50 in data set [1] was 15 to 22.5 µM. Further, in data set [2], the viability turned out to be 102%.

Consider `CC[C@H](C)[C@H](NC(=O)[C@H](CC(C)C)NC(=O)[C@H](Cc1ccccc1)NC(=O)[C@H](Cc1c[nH]c2ccccc12)NC(=O)[C@@H](N)CCSC)C(=O)N[C@@H](CO)C(=O)N[C@@H](Cc1ccccc1)C(=O)N[C@@H](Cc1c[nH]c2ccccc12)C(=O)N(C)[C@@H](C)C(=O)NCC(=O)O` [compound 45] (HELM PEPTIDE1{M.W.F.L.I.S.F.W.[meA].G}$$$$V2.0), for which, in data set [1], the EC50 was less than 7.5 µM. For the same compound, the viability in data set [2] is 101%. Besides, the “β-Cat FP Hill slope” value in data set [3] is 0.9. The Kd in data set [3] (read-out: β-Cat FP KD) was 0.4 to 1 µM.

`CC[C@H](C)[C@H](NC(=O)[C@H](CC(C)C)NC(=O)[C@H](Cc1ccccc1)NC(=O)[C@H](Cc1c[nH]c2ccccc12)NC(=O)[C@H](CCSC)NC(=O)[C@H](CCCNC(=N)N)NC(=O)[C@H](CO)NC(=O)[C@@H](N)CCSC)C(=O)N[C@@H](CS)C(=O)N[C@@H](Cc1ccccc1)C(=O)N[C@@H](Cc1c[nH]c2ccccc12)C(=O)NCC(=O)O` [compound 46] (H-MSRMWFLICFWG-OH): the EC50 in data set [1] is less than 7.5 µM. For the same compound, the viability in data set [2] worked out at 101%.

`CC[C@H](C)[C@H](NC(=O)[C@H](CC(C)C)NC(=O)[C@H](Cc1ccccc1)NC(=O)[C@H](Cc1c[nH]c2ccccc12)NC(=O)[C@@H](N)CCSC)C(=O)N[C@@H](CO)C(=O)N[C@@H](Cc1ccccc1)C(=O)N[C@@H](Cc1c[nH]c2ccccc12)C(=O)N[C@@H](CCC(=O)O)C(=O)NCC(=O)O` [compound 47] (H-MWFLISFWEG-OH): in data set [1], the EC50 is less than 7.5 µM. Further, the viability in data set [2] was found to be 103%. Besides, the “β-Cat FP Hill slope” value in data set [3] was found to be 2.29. In data set [3] (read-out: β-Cat FP KD), the Kd was 0.4 to 1 µM.

In data set [1], `CC[C@H](C)[C@H](NC(=O)[C@H](CC(C)C)NC(=O)[C@@H](NC(=O)[C@H](Cc1c[nH]c2ccccc12)NC(=O)[C@H](CCSC)NC(=O)[C@H](CCCNC(=N)N)NC(=O)[C@H](CO)NC(=O)[C@@H](N)CCSC)[C@@H](C)CC)C(=O)N[C@@H](CO)C(=O)N[C@@H](Cc1ccccc1)C(=O)N[C@@H](Cc1c[nH]c2ccccc12)C(=O)NCC(=O)O` [compound 51] (H-MSRMWILISFWG-OH) displayed an EC50 of 7.5 to 15 µM. Also, the viability in data set [2] stood at 98.5%.

Regarding `CC[C@H](C)[C@H](NC(=O)[C@H](CC(C)C)NC(=O)[C@H](Cc1ccccc1)NC(=O)[C@H](Cc1c[nH]c2ccccc12)NC(=O)[C@@H](N)CCSC)C(=O)N[C@@H](CS)C(=O)N[C@@H](Cc1ccccc1)C(=O)N[C@@H](Cc1c[nH]c2ccccc12)C(=O)N(C)CC(=O)O` [compound 213] (HELM PEPTIDE1{M.W.F.L.I.C.F.W.[Sar]}$$$$V2.0), the viability in data set [2] is 112%. The Kd in data set [3] (read-out: β-Cat FP KD) is 1 to 10 µM.

`CC[C@H](C)[C@H](NC(=O)[C@H](CC(C)C)NC(=O)[C@@H](NC(=O)[C@H](Cc1c[nH]c2ccccc12)NC(=O)[C@H](CCSC)NC(C)=O)[C@@H](C)CC)C(=O)N[C@@H](CO)C(=O)N[C@@H](Cc1ccccc1)C(=O)N[C@@H](Cc1c[nH]c2ccccc12)C(=O)N(C)CC(=O)O` [compound 221] (HELM PEPTIDE1{[ac].M.W.I.L.I.S.F.W.[Sar]}$$$$V2.0): the viability in data set [2] is 101%. Moreover, the Kd in data set [3] (read-out: β-Cat FP KD) is less than 0.4 µM.

The compound `CC[C@H](C)[C@@H]1NC(=O)[C@@H](NC(=O)[C@H](CCC(N)=O)NC(=O)[C@H](C)N(C)C(=O)[C@H](Cc2c[nH]c3ccccc23)NC(C)=O)CCCCNC(=O)C[C@@H](C(=O)N[C@@H](Cc2c[nH]cn2)C(=O)N[C@H](C(=O)N[C@@H](CCC(N)=O)C(=O)N[C@@H](C)C(=O)N[C@H](C(N)=O)C(C)C)C2CCCCC2)NC(=O)[C@H](CC(N)=O)NC(=O)[C@H](CC(C)C)NC1=O` [compound 452] (HELM PEPTIDE1{[ac].W.[meA].Q.K.I.L.N.D.H.[O=C([C@@H](N[*:1])C1CCCCC1)[*:2]].Q.A.V.[am]}$PEPTIDE1,PEPTIDE1,5:R3-9:R3$$$V2.0) showed an EC50 in data set [1] of 15 to 22.5 µM. The “β-Cat FP Hill slope” value in data set [3] is recorded as 0.7. The compound also displayed a Kd in data set [3] (β-Cat FP KD) of 0.4 to 1 µM.

`CCCCCCCCCCCC(=O)N[C@@H](Cc1c[nH]c2ccccc12)C(=O)N(C)[C@@H](C)C(=O)N[C@@H](CCC(N)=O)C(=O)N[C@H]1CCCCNC(=O)CC[C@@H](C(=O)N[C@@H](Cc2c[nH]cn2)C(=O)N[C@H](C(=O)N[C@H]2CCC(=O)NCCCC[C@@H](C(N)=O)NC(=O)[C@H](Cc3c[nH]c4ccccc34)NC(=O)[C@H](C(C)C)NC(=O)[C@H](CC(=O)O)NC2=O)C2CCCCC2)NC(=O)[C@H](CC(=O)O)NC(=O)[C@H](CC(C)C)NC(=O)[C@H]([C@@H](C)CC)NC1=O` [compound 465] (HELM PEPTIDE1{[CCCCCCCCCCCC(=O)[*:2]].W.[meA].Q.K.I.L.D.E.H.[O=C([C@@H](N[*:1])C1CCCCC1)[*:2]].E.D.V.W.K.[am]}$PEPTIDE1,PEPTIDE1,5:R3-9:R3|PEPTIDE1,PEPTIDE1,12:R3-16:R3$$$V2.0; bridges inferred) gave an EC50 in data set [1] of less than 7.5 µM. Besides, the “β-Cat FP Hill slope” value in data set [3] is recorded as 0.7.

On to `CC[C@H](C)[C@H](NC(=O)[C@H](CO)NC(=O)[C@H](CCC(N)=O)NC(=O)[C@@H]1CCCN1C(=O)[C@H](Cc1c[nH]c2ccccc12)NC(C)=O)C(=O)N[C@@H](CC(C)C)C(=O)N[C@@H](CC(=O)O)C(=O)N[C@H]1CCC(=O)NCCCC[C@@H](C(=O)N[C@H](C(=O)N[C@@H](Cc2c[nH]c3ccccc23)C(=O)NCC(N)=O)C(C)C)NC(=O)[C@H](CCC(N)=O)NC(=O)[C@H](C2CCCCC2)NC(=O)[C@H](Cc2c[nH]cn2)NC1=O` [compound 472] (HELM PEPTIDE1{[ac].W.P.Q.S.I.L.D.E.H.[O=C([C@@H](N[*:1])C1CCCCC1)[*:2]].Q.K.V.W.G.[am]}$PEPTIDE1,PEPTIDE1,9:R3-13:R3$$$V2.0), for which the EC50 in data set [1] lay within 7.5 to 15 µM. In data set [3], the “β-Cat FP Hill slope” value is 0.89. Further, in data set [3] (read-out: β-Cat FP KD), the Kd was less than 0.4 µM.

The values are drawn from patent US12441768B2, “Compositions and methods for treating endometriosis” (EndoMet Biosciences, Inc., priority 2018, dated 2025).
